The source of these data is ChEMBL document CHEMBL4219237, “Design, synthesis, evaluation, and molecular docking of ursolic acid derivatives containing a nitrogen heterocycle as anti-inflammatory agents” (Bioorg Med Chem Lett, 2018).

For assay [1], the system named is Mus musculus. The experiment in a line: Antiinflammatory activity in mouse assessed as inhibition of para-xylene-induced ear edema at 100 mg/kg, ip administered 30 mins prior to para-xylene challenge measured after 30 mins relative to control. It is filed as functional.
A further assay concerns HCT-116. The experiment in a line: Cytotoxicity against human HCT116 cells assessed as growth inhibition after 24 hrs by MTT assay. It is filed as cell-based. Conditions: HCT-116, 24 h.
Assay [2] relates to Mus musculus. The experiment in a line: Potency index, ratio of test compound to ibuprofen activity in mouse assessed as inhibition of para-xylene-induced ear edema at 100 mg/kg, ip. It counts as functional.
In assay [3] the test system is Mus musculus. Briefly: Antiinflammatory activity in mouse assessed as inhibition of para-xylene-induced ear edema at 100 mg/kg, po measured at 1 hr relative to control. It counts as functional.
Assay [4] relates to Mus musculus. Briefly: Antiinflammatory activity in mouse assessed as inhibition of para-xylene-induced ear edema at 100 mg/kg, po measured at 2 hrs relative to control. It counts as functional.
Assay [5] relates to Mus musculus. The experiment in a line: Antiinflammatory activity in mouse assessed as inhibition of para-xylene-induced ear edema at 100 mg/kg, po measured at 3 hrs relative to control. It is filed as functional.
Assay [6] has as its system Mus musculus. The experiment in a line: Antiinflammatory activity in mouse assessed as inhibition of para-xylene-induced ear edema at 100 mg/kg, po measured at 4 hrs relative to control. It counts as functional.
Assay [7] has as its system Mus musculus. The experiment in a line: Antiinflammatory activity in mouse assessed as inhibition of para-xylene-induced ear edema at 100 mg/kg, po measured at 5 hrs relative to control. It counts as functional.
Assay [8] has as its system Mus musculus. Briefly: Antiinflammatory activity in mouse assessed as inhibition of para-xylene-induced ear edema at 125 mg/kg, po measured at 2 hrs relative to control. It counts as functional.
For assay [9], the system named is Mus musculus. Briefly: Antiinflammatory activity in mouse assessed as inhibition of para-xylene-induced ear edema at 50 mg/kg, po measured at 2 hrs relative to control. It is filed as functional.
For assay [10], the system named is Mus musculus. Briefly: Antiinflammatory activity in mouse assessed as inhibition of para-xylene-induced ear edema at 25 mg/kg, po measured at 2 hrs relative to control. It is filed as functional.
A further assay deals with AGS. Briefly: Cytotoxicity against human AGS cells assessed as growth inhibition after 24 hrs by MTT assay. It is filed as cell-based. In general terms: Tetrazolium dyes change colour on reduction, which living cells bring about.
A further assay has as its system L02. The experiment in a line: Cytotoxicity against human L02 cells assessed as growth inhibition after 24 hrs by MTT assay. It is filed as cell-based. Conditions: L02, 24 h.

What is called inhibition in vivo is the percentage by which the read-out fell short of the control. A word on the IC50: it is the concentration needed to halve the response being measured. With `C[C@H]1[C@H](C)CC[C@]2(C(=O)OCCCN3CCN(Cc4nnc(-c5ccccc5Cl)o4)CC3)CC[C@]3(C)C(=CC[C@@H]4[C@@]5(C)CC[C@H](O)C(C)(C)[C@@H]5CC[C@]43C)[C@H]12`, the inhibition in vivo at 100 mg/kg in the assay with Mus musculus [1] amounted to 32%. Further, the IC50 in the assay with HCT-116 is above 100 µM.

As for `C[C@H]1[C@H](C)CC[C@]2(C(=O)OCCCn3ncn(-c4ccccc4)c3=O)CC[C@]3(C)C(=CC[C@@H]4[C@@]5(C)CC[C@H](O)C(C)(C)[C@@H]5CC[C@]43C)[C@H]12`, the inhibition in vivo at 100 mg/kg was 69.8% in the assay on Mus musculus [1]; 22.6% in the assay on Mus musculus [3]; 41.2 to 47.9% in the assay on Mus musculus [4]; 29.7% in the assay on Mus musculus [5]; 20.2% with Mus musculus [6]; 16.4% in the assay on Mus musculus [7]. For the same molecule, the IC50 was above 100 µM in the assay with HCT-116, above 200 µM in the assay with AGS and above 200 µM in the assay on L02. Further, in the assay with Mus musculus [2], the Ratio turned out to be 2. Moreover, the inhibition in vivo at 125 mg/kg in the assay on Mus musculus [8] is 50.1%. Moreover, in the assay on Mus musculus [9], the inhibition in vivo at 50 mg/kg turned out to be 35.2%. Besides, the inhibition in vivo at 25 mg/kg in the assay with Mus musculus [10] was 19.7%.

Regarding `C[C@H]1[C@H](C)CC[C@]2(C(=O)OCCN3CCN(Cc4nnc(-c5ccccc5)o4)CC3)CC[C@]3(C)C(=CC[C@@H]4[C@@]5(C)CC[C@H](O)C(C)(C)[C@@H]5CC[C@]43C)[C@H]12`, the inhibition in vivo at 100 mg/kg in the assay with Mus musculus [1] was determined as 59.1%. In addition, in the assay on HCT-116, the concentration for half-maximal inhibition (IC50) is above 100 µM.

For `C[C@H]1[C@H](C)CC[C@]2(C(=O)OCCCN3CCN(Cc4nnc(-c5cccc(Br)c5)o4)CC3)CC[C@]3(C)C(=CC[C@@H]4[C@@]5(C)CC[C@H](O)C(C)(C)[C@@H]5CC[C@]43C)[C@H]12`, the inhibition in vivo at 100 mg/kg in the assay with Mus musculus [1] was found to be 66.5%. The concentration for half-maximal inhibition (IC50) in the assay with HCT-116 was above 100 µM.

For `C[C@H]1[C@H](C)CC[C@]2(C(=O)OCc3nnc(-c4ccccc4Cl)o3)CC[C@]3(C)C(=CC[C@@H]4[C@@]5(C)CC[C@H](O)C(C)(C)[C@@H]5CC[C@]43C)[C@H]12`, the inhibition in vivo at 100 mg/kg in the assay on Mus musculus [1] came out at 38.8%. Also, the IC50 with HCT-116 was above 100 µM.

Take `C[C@H]1[C@H](C)CC[C@]2(C(=O)OCc3nnc(-c4cccc(Cl)c4)o3)CC[C@]3(C)C(=CC[C@@H]4[C@@]5(C)CC[C@H](O)C(C)(C)[C@@H]5CC[C@]43C)[C@H]12`: the inhibition in vivo at 100 mg/kg with Mus musculus [1] amounted to 65.4%. Moreover, the half-maximal inhibitory concentration (IC50) with HCT-116 was above 100 µM.

Consider `Cc1cccc(-c2nnc(COC(=O)[C@]34CC[C@@H](C)[C@H](C)[C@H]3C3=CC[C@@H]5[C@@]6(C)CC[C@H](O)C(C)(C)[C@@H]6CC[C@@]5(C)[C@]3(C)CC4)o2)c1`, for which, in the assay with HCT-116, the IC50 is above 100 µM.

`C[C@H]1[C@H](C)CC[C@]2(C(=O)OCc3nnc(-c4ccccc4)o3)CC[C@]3(C)C(=CC[C@@H]4[C@@]5(C)CC[C@H](O)C(C)(C)[C@@H]5CC[C@]43C)[C@H]12`: the inhibition in vivo at 100 mg/kg in the assay with Mus musculus [1] was found to be 62.3%. The IC50 with HCT-116 is above 100 µM.

Regarding `Cc1ccc(-c2nnc(COC(=O)[C@]34CC[C@@H](C)[C@H](C)[C@H]3C3=CC[C@@H]5[C@@]6(C)CC[C@H](O)C(C)(C)[C@@H]6CC[C@@]5(C)[C@]3(C)CC4)o2)cc1`, the inhibition in vivo at 100 mg/kg with Mus musculus [1] turned out to be 58.2%. Besides, the half-maximal inhibitory concentration (IC50) in the assay on HCT-116 is above 100 µM.

Take `C[C@H]1[C@H](C)CC[C@]2(C(=O)OCc3nnc(-c4ccc(Cl)cc4)o3)CC[C@]3(C)C(=CC[C@@H]4[C@@]5(C)CC[C@H](O)C(C)(C)[C@@H]5CC[C@]43C)[C@H]12`: in the assay on HCT-116, the IC50 is above 100 µM.

For the molecule `COc1ccc2c(c1)c(CC(=O)O)c(C)n2C(=O)c1ccc(Cl)cc1` [INDOMETHACIN], the inhibition in vivo at 100 mg/kg with Mus musculus [1] is 26.8%; in the assay on Mus musculus [3], 12%; in the assay with Mus musculus [4], 30.9 to 33.3%; with Mus musculus [5], 18.6%; in the assay with Mus musculus [6] it was 15.6%; in the assay with Mus musculus [7] it was 10.3%. The inhibition in vivo at 125 mg/kg in the assay on Mus musculus [8] worked out at 38.7%. Besides, the inhibition in vivo at 50 mg/kg in the assay with Mus musculus [9] worked out at 22.8%. For the same molecule, the inhibition in vivo at 25 mg/kg in the assay on Mus musculus [10] worked out at 4.85%.

`C[C@H]1[C@H](C)CC[C@]2(C(=O)OCc3nnc(-c4cccc(Br)c4)o3)CC[C@]3(C)C(=CC[C@@H]4[C@@]5(C)CC[C@H](O)C(C)(C)[C@@H]5CC[C@]43C)[C@H]12`: in the assay with Mus musculus [1], the inhibition in vivo at 100 mg/kg worked out at 53.7%. In the assay with HCT-116, the half-inhibitory concentration (IC50) is above 100 µM.

`C[C@H]1[C@H](C)CC[C@]2(C(=O)OCCCN3CCN(Cc4nnc(-c5ccccc5)o4)CC3)CC[C@]3(C)C(=CC[C@@H]4[C@@]5(C)CC[C@H](O)C(C)(C)[C@@H]5CC[C@]43C)[C@H]12`: the inhibition in vivo at 100 mg/kg in the assay on Mus musculus [1] came to 47.8%. Besides, in the assay with HCT-116, the IC50 is above 100 µM.

Consider `C[C@H]1[C@H](C)CC[C@]2(C(=O)OCCN3CCN(Cc4nnc(-c5cccc(Br)c5)o4)CC3)CC[C@]3(C)C(=CC[C@@H]4[C@@]5(C)CC[C@H](O)C(C)(C)[C@@H]5CC[C@]43C)[C@H]12`, for which the inhibition in vivo at 100 mg/kg in the assay on Mus musculus [1] stood at 61%. The IC50 in the assay on HCT-116 was above 100 µM.

For `C[C@H]1[C@H](C)CC[C@]2(C(=O)OCCCCn3ncn(-c4ccccc4)c3=O)CC[C@]3(C)C(=CC[C@@H]4[C@@]5(C)CC[C@H](O)C(C)(C)[C@@H]5CC[C@]43C)[C@H]12`, the inhibition in vivo at 100 mg/kg in the assay with Mus musculus [1] stood at 66.1%. In the assay with HCT-116, the IC50 was above 100 µM. The Ratio in the assay on Mus musculus [2] was 2.

As for `CC(C)Cc1ccc(C(C)C(=O)O)cc1` (configuration not stated) [IBUPROFEN], in the assay with Mus musculus [1], the inhibition in vivo at 100 mg/kg is 25.2%.

Regarding `C[C@H]1[C@H](C)CC[C@]2(C(=O)OCCn3ncn(-c4ccccc4)c3=O)CC[C@]3(C)C(=CC[C@@H]4[C@@]5(C)CC[C@H](O)C(C)(C)[C@@H]5CC[C@]43C)[C@H]12`, the inhibition in vivo at 100 mg/kg in the assay with Mus musculus [1] is 64.2%. The IC50 in the assay on HCT-116 was above 100 µM.

As for `C[C@H]1[C@H](C)CC[C@]2(C(=O)OCc3nnc(-c4ccc(Br)cc4)o3)CC[C@]3(C)C(=CC[C@@H]4[C@@]5(C)CC[C@H](O)C(C)(C)[C@@H]5CC[C@]43C)[C@H]12`, the inhibition in vivo at 100 mg/kg in the assay with Mus musculus [1] was found to be 68.9%. Further, in the assay on HCT-116, the IC50 was above 100 µM.

With `Cc1ccccc1-c1nnc(COC(=O)[C@]23CC[C@@H](C)[C@H](C)[C@H]2C2=CC[C@@H]4[C@@]5(C)CC[C@H](O)C(C)(C)[C@@H]5CC[C@@]4(C)[C@]2(C)CC3)o1`, the inhibition in vivo at 100 mg/kg in the assay with Mus musculus [1] amounted to 57.2%. In addition, the IC50 with HCT-116 was above 100 µM.

For the molecule `C[C@H]1[C@H](C)CC[C@]2(C(=O)OCCCN3CCN(Cc4nnc(-c5ccc(F)cc5)o4)CC3)CC[C@]3(C)C(=CC[C@@H]4[C@@]5(C)CC[C@H](O)C(C)(C)[C@@H]5CC[C@]43C)[C@H]12`, in the assay with Mus musculus [1], the inhibition in vivo at 100 mg/kg stood at 58.7%. Further, the IC50 with HCT-116 was above 100 µM.

`C[C@H]1[C@H](C)CC[C@]2(C(=O)OCc3nnc(-c4ccccc4Br)o3)CC[C@]3(C)C(=CC[C@@H]4[C@@]5(C)CC[C@H](O)C(C)(C)[C@@H]5CC[C@]43C)[C@H]12`: in the assay with Mus musculus [1], the inhibition in vivo at 100 mg/kg was 55.3%. Moreover, the half-maximal inhibitory concentration (IC50) in the assay with HCT-116 was above 100 µM.

Take `C[C@H]1[C@H](C)CC[C@]2(C(=O)O)CC[C@]3(C)C(=CC[C@@H]4[C@@]5(C)CC[C@H](O)C(C)(C)[C@@H]5CC[C@]43C)[C@H]12` [URSOLIC ACID]: the inhibition in vivo at 100 mg/kg in the assay on Mus musculus [1] was found to be 57.7%.

For `C[C@H]1[C@H](C)CC[C@]2(C(=O)OCCCCCn3ncn(-c4ccccc4)c3=O)CC[C@]3(C)C(=CC[C@@H]4[C@@]5(C)CC[C@H](O)C(C)(C)[C@@H]5CC[C@]43C)[C@H]12`, the inhibition in vivo at 100 mg/kg in the assay on Mus musculus [1] came out at 56.7%. In the assay on HCT-116, the half-maximal inhibitory concentration (IC50) is above 100 µM. For the same molecule, in the assay on Mus musculus [2], the Ratio amounted to 2.
